In patent publication US6630583B1, “Antibiotics and methods of using the same” (priority 1998, dated 2003):

Assays:
[1] = tested on: T4 strain (which encodes the T4 type Vex2 receptor); assay: Killing in vitro by synthetic R6 peptide; assay type: cell-based, pneumococcus; conditions: synthetic R6 peptide added to a T4 strain
Source text: Clinical isolates were sequenced and a predominance of the R6 type amino acid sequence for the P27 peptide and of the Type 4 amino acid sequence for the Vex2 transporter was found. Out of fourteen isolates that were screened for Vex2, twelve had the Type 4 allele and only two had the R6 type allele. Eleven of the fourteen isolates were also screened for the P27 peptide. Nine were of the R6 type P27 allele (SEQ ID NO:60) and only two were of the Type 4 P27 allele. Thus, most of the isolates examined encoded an R6 type peptide (SEQ ID NO:60) and a T4 type Vex transporter. Importantly, two of the three tolerant strains encoded either the R6 type P27 peptide and the R6 type Vex2, or alternatively, the T4 type P27 peptide and the T4 type Vex2 receptor indicating an over-representation of these “matching” combinations in tolerant strains. Furthermore, isolates encoding a mix of R6/T4 type P27 peptide/Vex2 receptor were more susceptible to being killed in vitro, i.e. when the synthetic R6 peptide was added to a T4 strain (which encodes the T4 type Vex2 receptor) there was about 10-20% more bioactivity. Thus, genotype combinations comprising the R6 type P27 peptide and the R6 type Vex2 receptor or the T4 type P27 peptide and the T4 type Vex2 receptor may facilitate the tolerant phenotype. […]

vncS deficient mutant = assay: Antimicrobial peptide sensitivity test (growth, viability); assay type: cell-based, S. pneumoniae; conditions: 0.1 mM P27
Description: (§1) FIGS. 15A-15C show the effect of the synthetic peptide homolog P27 on induced growth inhibition. […] Cultures were in the early exponential phase of growth (10^6 cfu/ml) when treated with the synthetic peptide, P27. FIG. 15B is a block diagram showing the viability counts (after one hour) of parent strain R6, and loss of function mutants vncS, vncR, vex1, vex3, following the addition of 0.1 mM P27. R6 without the peptide is the positive control. […] Experimental conditions are the same as in FIG. 15A.
(§2) Anitmicrobial peptide sensitivity tests: Survival and autolysis rates in the presence of antimicrobial peptides were determined by exposing the parent strain R6 and the vncS deficient mutant to different concentrations (0.05 to 200 μM) of P27 or cecropin B (American Peptide Company, Sunnyvale, Calif., USA) at an OD620nm 0.05 (10^6 cfu/ml). For the disk diffusion assay, agar plates were seeded with a lawn of S. pneumoniae, Enterococcus faecalis, E. faecium, Streptococcus agalactiae, S. pyogenes or Staphylococcus aureus. The plates were incubated for 12 hours at 37° C. with a disk soaked with the synthetic P27 (2 mM). The size of the halo was determined with a ruler.

[2] = tested on: leucine deprived R6 cells; assay: Stringent response: lysis after leucine deprivation; assay type: cell-based, S. pneumoniae; conditions: 10×MIC of penicillin or vancomycin, 0.2 mM P27, or combination
Description: P27 and the stringent response mechanism: The stringent response is believed to prevent the death pathway. To clarify the relationship of the stringent response to P27 activity, protein synthesis of R6 was inhibited by leucine deprivation and the effect of P27 was monitored (FIG. 19). […] The minimum concentration of penicillin required to cause penicillin dependent autolysis was equal to its MIC ([…]).

Lyt 4-4 = assay: Loss of chain formation (morphology); assay type: cell-based, Streptococcus pneumoniae; conditions: Lyt-4-4, P27 added
Source text: Loss of chain formation is a measure of antibacterial activity independent of autolysin.
Strains of pneumococcus that are tolerant to penicillin, such as Lyt 4-4, grow in long chains as compared to the diplococcal morphology of wild type pneumococci. FIG. 6A illustrates these chains, which extend to 30-50 bacteria in length.
P27 is capable of triggering different autolytic pathways: To identify the relationship between P27 and the activation of the autolysin LytA, the bactericidal effect of the peptide on the pneumococcal mutant Lyt-4-4 (which is deficient in the major autolysin), was investigated. […] Compared to the diplococcal morphology of wild type pneumococci, pneumococci lacking an active autolysin grow in long chains.

pneumococcal strain R6 = assay: Cell growth curves (OD 620 nm) and viability of R6 with peptide; assay type: cell-based, Streptococcus pneumoniae; conditions: peptides at 100 μM added to growing R6 at OD 620 nm of 0.1
Description: (§3) Cell growth curves were performed in the presence or absence of the test reagents as specified. In short, samples were prepared as follows: 1 ml of a pneumococcus culture was placed into 10 ml of prewarmed Semisynthetic (C+Y) medium. The optical density (OD) of the bacteria was monitored at 620 nm until an OD of approximately 0.1 was reached. At this point the test reagents were administered to the samples. The cells were cultured for up to 11 hours at 37° Celsius, and the OD at 620 nm was monitored every hour. A decrease in OD 620 is indicative of cell lysis, an increase is indicative of bacterial growth. No change in optical density indicates growth inhibition.
To characterize the antibacterial activity of the peptide, pneumococcal strain R6 which is sensitive to penicillin was exposed to 0.1 mM of the peptide having the amino acid sequence of SEQ ID NO:2 at an optical density of 0.01 (bacterial density of 3×10^6 cfu/ml). Bacterial growth as measured by optical density was followed for 11 hours and viability was assessed by plating on blood agar. […] Four hours after the start of the experiment, the control strain grew from 3×10^6 to 1.2×10^7 cfu/ml. In contrast, four hours after addition of the peptide, the viable bacterial number decreased from 3×10^6 to 3×10^4 CFU/ml (10^3-fold lower than the control).
The fact that the peptide is active in the range below 1 μg/ml places the potency of its antibacterial effect in the same range as conventional antibiotics.
R6 with no peptide was the control and underwent exponential growth. […] This enhanced activity may result from an improvement in folding of the peptide or greater access to the bacterial target.

[3] = tested on: clinical pneumococcal isolate; assay: Rabbit model of pneumococcal meningitis; assay type: in vivo; conditions: single intrathecal injection of 5 mg/kg, over 8 hours
Description: Rabbit model of pneumococcal meningitis: Pneumococcal meningitis was established according to a standard protocol [Tauber and Zwahlen, Methods Enzymol., 235:92-106 (1994)]. After withdrawal of CSF (300 μl), 10^4 bacteria of a vancomycin tolerant clinical serotype 23 isolate (RNET05) in 200 μl saline was introduced intracisternally in all animals. The rabbits in group one received no treatment, group two received vancomycin (60 mg/kg) six hours after infection: group three received a combination of vancomycin (60 mg/kg) and P27 (4 mg/kg) six hours after infection and group four received P27 (4 mg/kg) six hours after infection. At six hour intervals. CSF (200 μl) was withdrawn and tested for bacterial and leukocyte density.

[4] = tested on: clinical pneumococcal isolates, which had no defect in the histidine/kinase VncS; assay: Growth of clinical isolates exposed to P27; assay type: cell-based, pneumococcus; conditions: 0.1 mM of P27
Description: To investigate if the peptide P27 was not only capable of triggering different death pathways but was in fact, obligatory, a mutant deficient in P27 was investigated for antibiotic tolerance. […] This was confirmed by Western blot analysis. After addition of 10×MIC of vancomycin, the vexcp3 mutant underwent less than 2 log kill in 4 hours in contrast to 4 log kill of the wild type (FIG. 18A). […] To exclude the possibility that tolerance of the vexp3 mutant resulted from changes in either the expression or intrinsic activity of the autolysin LytA, Western blot analysis of LytA of the vexp3 mutant was performed. […] However, exogenous autolysin from vexp3 mutant was as efficient as that from wild type pneumococcus at reconstitution of lysis of the autolysin deficient strain Lyt-4-4 (FIG. 18C). […] To investigate if this phenomenon was restricted to mutations in VncS or rather to the antibiotic tolerant phenotype, clinical pneumococcal isolates, which had no defect in the histidine/kinase VncS (verified by sequencing), were exposed to 0.1 mM of P27. […] This supports the conclusion that VncS might function as a receptor for P27.

[5] = tested on: antibiotic sensitive and LytA deficient bacteria; assay: Potentiation of the bactericidal effect of penicillin; assay type: cell-based, S. pneumoniae
[6] = tested on: autolysin deficient strain Lyt 4-4; assay: Growth and killing of autolysin deficient strain; assay type: cell-based, Streptococcus pneumoniae; conditions: compared with R6
Description: The addition of the additives were made at time “0” hours. The strain of bacteria cultured was the Lyt-4-4 strain of Streptococcus pneumoniae which harbors a mutation leading to the loss of LytA activity. The peptide having the amino acid sequence of SEQ ID NO:2 was added as indicated at a concentration of 0.1 mM. Lyt-4-4 lacks active autolysin LytA and is therefore tolerant to penicillin treatment.
as §3
This antibacterial effect was also demonstrable in bacteria mutated so as to prevent autolysis by point mutation in the autolysin, as in the autolysin deficient strain Lyt 4-4. […]

[7] = tested on: different streptococcal species and Staphylococcus aureus; assay: Disk diffusion assay; assay type: cell-based; conditions: disk soaked with synthetic P27 (2 mM)
Description: as §2

parent strain R6 = assay: Antimicrobial peptide sensitivity test (growth, viability); assay type: cell-based, S. pneumoniae
Description: as §1
Cultures in the early exponential phase (10^6 cfu/ml) were treated with 0.1 mM P27 (*), 14-mer C-terminal peptide (□), 14-mer N-terminal peptide (Δ), a truncate lacking the 5C-terminal amino acids (◯) or an alternative peptide (⋄).
as §2
To determine the biological effect of P27, cultures of the parent strain R6 at an OD620nm of 0.1 were exposed to 0.1 mM of the synthetic peptide homolog P27 having the amino acid sequence of SEQ ID NO:44. […] This behavior is distinct from all other antibiotics described to date, which have a clear cut MIC.

| Sequence | more bioactivity (killing in vitro) [1] | growth inhibition or cell death (vncS deficient mutant) | lysis of R6 under leucine deprivation [2] | chain formation (Lyt 4-4) | ability to inhibit R6 growth (pneumococcal strain R6) | kill of a clinical pneumococcal isolate [3] | growth of clinical isolates [4] | effect on bactericidal effect of penicillin [5] | bactericidal effect on Lyt-4-4 [6] | antibacterial activity against other species [7] | growth of R6 (parent strain R6; 0.1 mM P27, OD620nm of 0.1) | concentrations at which a substantial loss of viability was demonstrated (parent strain R6; R6) | inhibition of growth (parent strain R6; R6, 50 nM P27) | dose dependence of the extent of growth inhibition (parent strain R6; R6, 50 nM to 0.2 mM) | loss of viability (parent strain R6; R6, 0.1 mM P27) [log units] | inhibition of growth (parent strain R6; R6, 0.2 mM P27) |
| --- | --- | --- | --- | --- | --- | --- | --- | --- | --- | --- | --- | --- | --- | --- | --- | --- |
| MRKEFHNVLSSDQLLTDKRPARDYNRK (Streptococcus Pneumoniae) [synthetic R6 peptide] | 10-20% | – | – | – | – | – | – | – | – | – | – | – | – | – | – | – |
| MRKEFHNVLSSGQLLADKRPARDYNRK (listed as Streptococcus pneumoniae) [Peptide P27] | – | did not result in growth inhibition or even cell death | neither the addition of 10×the MIC of penicillin or vancomycin nor the addition of 0.2 mM P27 resulted in lysis | reversion of the chains to diplococci | the same effect | greater than 2 log | clear reduction in growth | potentiates the bactericidal effect of penicillin | still killed by P27 but not as efficiently as R6 | did not show antibacterial activity | potent growth inhibition | greater than 0.05 mM | marginal | dose dependent | 2 | complete growth arrest |
